# pIC50: −log10 of the molar value.
# Key:
# Assay in all cases: cells
# KYSE-520 cell line = assay type: functional, cell-based; details: Homo sapiens;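 also: growth inhibition of human KYSE-520 cells, read out with a viability assay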
# Description: SANGER: Inhibition of human KYSE-520 cell growth in a cell viability assay.
# SW48 = assay type: functional, cell-based; details: Homo sapiens;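 also: growth inhibition of SW48 cells, read out with a cell viability assay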
# Description: SANGER: Inhibition of human SW48 cell growth in a cell viability assay.
# LU-99A = assay type: functional, cell-based; details: Homo sapiens;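 also: growth inhibition of LU-99A cells, read out with a cell viability assay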
# Description: SANGER: Inhibition of human LU-99A cell growth in a cell viability assay.
# HCC1569 = assay type: functional, cell-based; details: Homo sapiens;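 also: growth inhibition of human HCC1569 cells, read out with a cell viability assay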
# Description: SANGER: Inhibition of human HCC1569 cell growth in a cell viability assay.
# RPMI-2650 = assay type: functional, cell-based; details: Homo sapiens
# Description: SANGER: Inhibition of human RPMI-2650 cell growth in a cell viability assay.
# CWR22R = assay type: functional, cell-based; details: Homo sapiens, 22Rv1;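 also: growth inhibition of 22Rv1 cells, read out with a cell viability assay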
# Description: SANGER: Inhibition of human 22RV1 cell growth in a cell viability assay.
# VMRC-RCZ = assay type: functional, cell-based; details: Homo sapiens;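 also: growth inhibition measured with a cell viability assay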
# Description: SANGER: Inhibition of human VMRC-RCZ cell growth in a cell viability assay.
# SBC-5 = assay type: functional, cell-based; details: Homo sapiens;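 also: cell viability assay read-out, IC50 is the concentration that inhibits growth of the cells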
# Description: SANGER: Inhibition of human SBC-5 cell growth in a cell viability assay.
# NCI-H292 = assay type: functional, cell-based; details: Homo sapiens;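 also: growth inhibition of NCI-H292 cells, read out with a cell viability assay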
# Description: SANGER: Inhibition of human NCI-H292 cell growth in a cell viability assay.
# NCI-H2342 = assay type: functional, cell-based; details: Homo sapiens;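 also: growth inhibition of the cancer cell line, determined with a cell viability assay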
# Description: SANGER: Inhibition of human NCI-H2342 cell growth in a cell viability assay.
# J82 = assay type: functional, cell-based; details: Homo sapiens;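 also: growth inhibition of J82 cells, read out with a cell viability assay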
# Description: SANGER: Inhibition of human J82 cell growth in a cell viability assay.
# GP5d = assay type: functional, cell-based; details: Homo sapiens;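 also: growth inhibition of human GP5d cells, read out with a cell viability assay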
# Description: SANGER: Inhibition of human GP5d cell growth in a cell viability assay.
# 639-V = assay type: functional, cell-based; details: Homo sapiens;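 also: growth inhibition of 639-V cells, read out with a cell viability assay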
# Description: SANGER: Inhibition of human 639-V cell growth in a cell viability assay.
# IGR-1 = assay type: functional, cell-based; details: Homo sapiens;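 also: growth inhibition of human IGR-1 cells, read out with a cell viability assay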
# Description: SANGER: Inhibition of human IGR-1 cell growth in a cell viability assay.
# HuP-T4 = assay type: functional, cell-based; details: Homo sapiens;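 also: cell viability assay measuring how much HuP-T4 cell growth is inhibited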
# Description: SANGER: Inhibition of human HuP-T4 cell growth in a cell viability assay.
# ASPC1 = assay type: functional, cell-based; details: Homo sapiens;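 also: growth inhibition of AsPC-1 cells, read out with a cell viability assay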
# Description: SANGER: Inhibition of human AsPC-1 cell growth in a cell viability assay.
# C32 = assay type: functional, cell-based; details: Homo sapiens;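 also: cell viability assay, with IC50 reflecting inhibition of C32 cell growth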
# Description: SANGER: Inhibition of human C32 cell growth in a cell viability assay.
# M14 = assay type: functional, cell-based; details: Homo sapiens;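 also: growth inhibition of M14 cells, read out with a cell viability assay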
# Description: SANGER: Inhibition of human M14 cell growth in a cell viability assay.
# DOK = assay type: functional, cell-based; details: Homo sapiens;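 also: cell viability assay read-out, values reflect inhibition of cell growth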
# Description: SANGER: Inhibition of human DOK cell growth in a cell viability assay.
# DU-145 = assay type: functional, cell-based; details: Homo sapiens
# Description: SANGER: Inhibition of human DU-145 cell growth in a cell viability assay.
# T47D = assay type: functional, cell-based; details: Homo sapiens;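 also: growth inhibition of human T47D cells, measured with a cell viability assay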
# Description: SANGER: Inhibition of human T47D cell growth in a cell viability assay.
# OAW-28 = assay type: functional, cell-based; details: Homo sapiens;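 also: growth inhibition of OAW-28 cells, read out with a cell viability assay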
# Description: SANGER: Inhibition of human OAW-28 cell growth in a cell viability assay.
# CAL-120 = assay type: functional, cell-based; details: Homo sapiens;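 also: cell growth inhibition, read out as cell viability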
# Description: SANGER: Inhibition of human CAL-120 cell growth in a cell viability assay.
# HT1197 = assay type: functional, cell-based, HT-1197; details: Homo sapiens
# Description: SANGER: Inhibition of human HT-1197 cell growth in a cell viability assay.
# UACC-62 = assay type: functional, cell-based; details: Homo sapiens;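 also: growth inhibition of human UACC-62 cells, read out by a cell viability assay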
# Description: SANGER: Inhibition of human UACC-62 cell growth in a cell viability assay.
# S-117 = assay type: functional, cell-based; details: Homo sapiens
# Description: SANGER: Inhibition of human S-117 cell growth in a cell viability assay.
# IGROV-1 = assay type: functional, cell-based; details: Homo sapiens;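 also: reduction of IGROV-1 cell growth, read out with a viability assay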
# Description: SANGER: Inhibition of human IGROV-1 cell growth in a cell viability assay.
# SK-OV-3 = assay type: functional, cell-based; details: Homo sapiens;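 also: growth inhibition of SK-OV-3 human cells, read out with a cell viability assay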
# Description: SANGER: Inhibition of human SK-OV-3 cell growth in a cell viability assay.
# MOLT-13 = assay type: functional, cell-based; details: Homo sapiens;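 also: IC50 for suppression of MOLT-13 cell growth, read out with a cell viability assay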
# Description: SANGER: Inhibition of human MOLT-13 cell growth in a cell viability assay.
# MFE-280 = assay type: functional, cell-based; details: Homo sapiens;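 also: growth inhibition of MFE-280 cells, determined with a cell viability readout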
# Description: SANGER: Inhibition of human MFE-280 cell growth in a cell viability assay.
# RVH-421 = assay type: functional, cell-based; details: Homo sapiens
# Description: SANGER: Inhibition of human RVH-421 cell growth in a cell viability assay.
# NB14 = assay type: functional, cell-based, Homo sapiens; details: Homo sapiens, NB14;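 also: growth inhibition of NB14 cells measured with a cell viability assay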
# Description: SANGER: Inhibition of human NB14 cell growth in a cell viability assay.
# CAL-27 = assay type: functional, cell-based; details: Homo sapiens;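 also: Viability-based readout, IC50 reflecting inhibition of CAL-27 cell growth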
# Description: SANGER: Inhibition of human CAL-27 cell growth in a cell viability assay.
# CHL-1 = assay type: functional, cell-based; details: Homo sapiens;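 also: cell growth inhibition, read out with a cell viability assay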
# Description: SANGER: Inhibition of human CHL-1 cell growth in a cell viability assay.
# NCI-H2087 = assay type: functional, cell-based; details: Homo sapiens;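 also: growth inhibition determined with a cell viability readout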
# Description: SANGER: Inhibition of human NCI-H2087 cell growth in a cell viability assay.
# NCI-H1573 = assay type: functional, cell-based; details: Homo sapiens;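 also: growth inhibition of NCI-H1573 cells, read out with a cell viability assay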
# Description: SANGER: Inhibition of human NCI-H1573 cell growth in a cell viability assay.
# SW1088 = assay type: functional, cell-based; details: Homo sapiens;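 also: growth inhibition of human SW1088 cells, read out by a cell viability assay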
# Description: SANGER: Inhibition of human SW1088 cell growth in a cell viability assay.
# MDA-MB-231 = assay type: functional, cell-based; details: Homo sapiens
# Description: SANGER: Inhibition of human MDA-MB-231 cell growth in a cell viability assay.
# HO-1-N-1 = assay type: functional, cell-based; details: Homo sapiens;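 also: growth inhibition of human HO-1-N-1 cells, read out with a cell viability assay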
# Description: SANGER: Inhibition of human HO-1-N-1 cell growth in a cell viability assay.
# NCI-H520 = assay type: functional, cell-based; details: Homo sapiens;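 also: growth inhibition of NCI-H520 cells, measured by a cell viability assay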
# Description: SANGER: Inhibition of human NCI-H520 cell growth in a cell viability assay.
# CAL-62 = assay type: functional, cell-based; details: Homo sapiens;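 also: growth inhibition of CAL-62 cells, read out with a cell viability assay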
# Description: SANGER: Inhibition of human CAL-62 cell growth in a cell viability assay.
# NCI-H1755 = assay type: functional, cell-based; details: Homo sapiens;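 also: cell viability readout used to measure growth inhibition of NCI-H1755 cells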
# Description: SANGER: Inhibition of human NCI-H1755 cell growth in a cell viability assay.
# Ca-Ski = assay type: functional, cell-based; details: Homo sapiens;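 also: cell viability assay measuring inhibition of Ca-Ski cell growth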
# Description: SANGER: Inhibition of human Ca-Ski cell growth in a cell viability assay.
# NCI-H1993 = assay type: functional, cell-based; details: Homo sapiens;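 also: growth inhibition of the cancer cell line, assessed with a cell viability assay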
# Description: SANGER: Inhibition of human NCI-H1993 cell growth in a cell viability assay.
# SNU-423 = assay type: functional, cell-based; details: Homo sapiens
# Description: SANGER: Inhibition of human SNU-423 cell growth in a cell viability assay.
# OVCAR-5 = assay type: functional, cell-based; details: Homo sapiens;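 also: growth inhibition of human OVCAR-5 cells, read out with a cell viability assay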
# Description: SANGER: Inhibition of human OVCAR-5 cell growth in a cell viability assay.
# K052 = assay type: functional, cell-based, Homo sapiens; details: Homo sapiens, K052;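 also: Read-out from a cell viability assay, IC50 reflecting suppression of K052 cell growth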
# Description: SANGER: Inhibition of human K052 cell growth in a cell viability assay.
# EC-GI-10 = assay type: functional, cell-based, Homo sapiens; details: Homo sapiens, EC-GI-10
# Description: SANGER: Inhibition of human EC-GI-10 cell growth in a cell viability assay.
# NCI-H2081 = assay type: functional, cell-based, Homo sapiens; details: Homo sapiens, NCI-H2081;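 also: growth inhibition of human NCI-H2081 cells, read out with a cell viability assay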
# Description: SANGER: Inhibition of human NCI-H2081 cell growth in a cell viability assay.
# U-698-M = assay type: functional, cell-based, Homo sapiens; details: Homo sapiens, U-698-M
# Description: SANGER: Inhibition of human U-698-M cell growth in a cell viability assay.
# SCC-3 = assay type: functional, cell-based, Homo sapiens; details: Homo sapiens, SCC-3;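 also: cell viability assay measuring inhibition of SCC-3 cell growth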
# Description: SANGER: Inhibition of human SCC-3 cell growth in a cell viability assay.
# BOKU = assay type: functional, cell-based; details: Homo sapiens;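 also: growth inhibition of the human BOKU cell line, read out by a cell viability assay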
# Description: SANGER: Inhibition of human BOKU cell growth in a cell viability assay.
# PF-382 = assay type: functional, cell-based, Homo sapiens; details: Homo sapiens, PF-382
# Description: SANGER: Inhibition of human PF-382 cell growth in a cell viability assay.
# NCI-H1417 = assay type: functional, cell-based, Homo sapiens; details: Homo sapiens, NCI-H1417;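 also: human NCI-H1417 cells, growth inhibition determined with a cell viability readout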
# Description: SANGER: Inhibition of human NCI-H1417 cell growth in a cell viability assay.
# SUP-T1 = assay type: functional, cell-based, Homo sapiens; details: Homo sapiens, SUP-T1;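 also: growth inhibition of human SUP-T1 cells, read out as cell viability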
# Description: SANGER: Inhibition of human SUP-T1 cell growth in a cell viability assay.
# NCI-H2196 = assay type: functional, cell-based, Homo sapiens; details: Homo sapiens, NCI-H2196;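 also: cell viability assay used as the readout of growth inhibition in NCI-H2196 cells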
# Description: SANGER: Inhibition of human NCI-H2196 cell growth in a cell viability assay.
# RL95-2 = assay type: functional, cell-based, Homo sapiens; details: Homo sapiens, RL95-2;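 also: RL95-2 growth inhibition determined through a cell viability readout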
# Description: SANGER: Inhibition of human RL95-2 cell growth in a cell viability assay.
# TUR = assay type: functional, cell-based, Homo sapiens; details: Homo sapiens, TUR;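 also: growth inhibition of human TUR cells, read out with a cell viability assay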
# Description: SANGER: Inhibition of human TUR cell growth in a cell viability assay.
# NCI-H64 = assay type: functional, cell-based, Homo sapiens; details: Homo sapiens, NCI-H64;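 also: growth inhibition of NCI-H64 cells, read out with a cell viability assay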
# Description: SANGER: Inhibition of human NCI-H64 cell growth in a cell viability assay.
smiles,measurement,setting,value
O=C1NC(=O)c2c1c(-c1ccccc1Cl)cc1[nH]c3ccc(O)cc3c21,pIC50,KYSE-520 cell line,< 5.70
same,pIC50,SW48,< 5.70
same,pIC50,LU-99A,< 5.70
same,pIC50,HCC1569,< 5.70
same,pIC50,RPMI-2650,< 5.70
same,pIC50,CWR22R,< 5.70
same,pIC50,VMRC-RCZ,< 5.70
same,pIC50,SBC-5,< 5.70
same,pIC50,NCI-H292,6.34
same,pIC50,NCI-H2342,< 5.70
same,pIC50,J82,< 5.70
same,pIC50,GP5d,< 5.70
same,pIC50,639-V,< 5.70
same,pIC50,IGR-1,< 5.70
same,pIC50,HuP-T4,< 5.70
same,pIC50,ASPC1,< 5.70
same,pIC50,C32,5.82
same,pIC50,M14,5.77
same,pIC50,DOK,5.91
same,pIC50,DU-145,6.79
same,pIC50,T47D,< 5.70
same,pIC50,OAW-28,< 5.70
same,pIC50,CAL-120,< 5.70
same,pIC50,HT1197,< 5.70
same,pIC50,UACC-62,< 5.70
same,pIC50,S-117,< 5.70
same,pIC50,IGROV-1,< 5.70
same,pIC50,SK-OV-3,< 5.70
same,pIC50,MOLT-13,< 5.70
same,pIC50,MFE-280,< 5.70
same,pIC50,RVH-421,< 5.70
same,pIC50,NB14,< 5.70
same,pIC50,CAL-27,< 5.70
same,pIC50,CHL-1,5.98
same,pIC50,NCI-H2087,< 5.70
same,pIC50,NCI-H1573,< 5.70
same,pIC50,SW1088,< 5.70
same,pIC50,MDA-MB-231,< 5.70
same,pIC50,HO-1-N-1,5.86
same,pIC50,NCI-H520,< 5.70
same,pIC50,CAL-62,< 5.70
same,pIC50,NCI-H1755,< 5.70
same,pIC50,Ca-Ski,< 5.70
same,pIC50,NCI-H1993,< 5.70
same,pIC50,SNU-423,< 5.70
CC1(C)CCC(c2ccc(Cl)cc2)=C(CN2CCN(c3ccc(C(=O)NS(=O)(=O)c4ccc(N[C@H](CCN5CCOCC5)CSc5ccccc5)c(S(=O)(=O)C(F)(F)F)c4)cc3)CC2)C1 [NAVITOCLAX],pIC50,KYSE-520 cell line,< 5.70
same,pIC50,SW48,< 5.70
same,pIC50,LU-99A,< 5.70
same,pIC50,HCC1569,6.60
same,pIC50,OVCAR-5,< 5.70
same,pIC50,RPMI-2650,< 5.70
same,pIC50,CWR22R,< 5.70
same,pIC50,VMRC-RCZ,< 5.70
same,pIC50,SBC-5,< 5.70
same,pIC50,NCI-H292,< 5.70
same,pIC50,NCI-H2342,5.85
same,pIC50,J82,< 5.70
same,pIC50,GP5d,< 5.70
same,pIC50,639-V,< 5.70
same,pIC50,IGR-1,< 5.70
same,pIC50,HuP-T4,< 5.70
same,pIC50,ASPC1,< 5.70
same,pIC50,C32,5.92
same,pIC50,M14,< 5.70
same,pIC50,DOK,< 5.70
same,pIC50,DU-145,6.05
same,pIC50,T47D,< 5.70
same,pIC50,OAW-28,6.11
same,pIC50,CAL-120,5.93
same,pIC50,HT1197,< 5.70
same,pIC50,UACC-62,< 5.70
same,pIC50,S-117,< 5.70
same,pIC50,IGROV-1,< 5.70
same,pIC50,SK-OV-3,< 5.70
same,pIC50,MOLT-13,6.33
same,pIC50,MFE-280,< 5.70
same,pIC50,RVH-421,< 5.70
same,pIC50,NB14,5.94
same,pIC50,CAL-27,< 5.70
same,pIC50,CHL-1,< 5.70
same,pIC50,NCI-H2087,< 5.70
same,pIC50,NCI-H1573,< 5.70
same,pIC50,SW1088,< 5.70
same,pIC50,MDA-MB-231,< 5.70
same,pIC50,HO-1-N-1,< 5.70
same,pIC50,NCI-H520,< 5.70
same,pIC50,CAL-62,< 5.70
same,pIC50,NCI-H1755,< 5.70
same,pIC50,Ca-Ski,< 5.70
same,pIC50,NCI-H1993,< 5.70
same,pIC50,SNU-423,5.75
Cc1ccc(NC(=O)c2ccc(CN3CCN(C)CC3)cc2)cc1Nc1nccc(-c2cccnc2)n1 [IMATINIB],pIC50,K052,< 5.70
same,pIC50,EC-GI-10,< 5.70
same,pIC50,NCI-H2081,< 5.70
same,pIC50,U-698-M,< 5.70
same,pIC50,SCC-3,< 5.70
same,pIC50,MOLT-13,< 5.70
same,pIC50,BOKU,< 5.70
same,pIC50,PF-382,< 5.70
same,pIC50,NCI-H1417,< 5.70
same,pIC50,NB14,< 5.70
same,pIC50,SUP-T1,< 5.70
same,pIC50,NCI-H2196,< 5.70
same,pIC50,RL95-2,< 5.70
same,pIC50,TUR,< 5.70
same,pIC50,NCI-H64,< 5.70
Cc1cc(N2CCOCC2)cc2[nH]c(-c3c(NC[C@@H](O)c4cccc(Cl)c4)cc[nH]c3=O)nc12,pIC50,K052,< 5.29
same,pIC50,EC-GI-10,< 5.29
same,pIC50,NCI-H2081,< 5.29
same,pIC50,U-698-M,< 5.29
same,pIC50,SCC-3,< 5.29
same,pIC50,MOLT-13,< 5.29
same,pIC50,BOKU,5.50
same,pIC50,PF-382,< 5.29
same,pIC50,NCI-H1417,< 5.29
same,pIC50,NB14,< 5.29
same,pIC50,SUP-T1,< 5.29
same,pIC50,NCI-H2196; read-out: IC50,< 5.29
same,pIC50,RL95-2,6.09
same,pIC50,TUR,< 5.29
same,pIC50,NCI-H64,< 5.29
Nc1ccccc1NC(=O)c1ccc(CNC(=O)OCc2cccnc2)cc1 [ENTINOSTAT],pIC50,EC-GI-10,< 5.30
same,pIC50,NCI-H2081,< 5.30
same,pIC50,U-698-M,< 5.30
same,pIC50,SCC-3,7.21
same,pIC50,MOLT-13,6.47
same,pIC50,PF-382,5.95
same,pIC50,NCI-H1417,6.89
same,pIC50,NB14,6.14
same,pIC50,SUP-T1,< 5.30
same,pIC50,NCI-H2196; read-out: IC50,5.39
same,pIC50,RL95-2,5.67
same,pIC50,TUR,< 5.30
same,pIC50,NCI-H64,5.89

# Reference: ChEMBL document CHEMBL1201861, “Genomics of Drug Sensitity in Cancer screening data, Wellcome Trust Sanger Institute”
